Key:
SHP-77 = assay: Cell proliferation assay (ATPlite), drug with vs without cobicistat; type: cell-based; conditions: SHP-77 cell line; 120 hours incubation
Method: (§1) All cell lines were obtained from the American Type Culture Collection (ATCC) Manassas, Va. (US). Master and working cell banks (MCB and WCB) were prepared by subculturing in ATCC-recommended media and freezing protocols (www.atcc.org). Cell line stocks for the assays were prepared from the WCB. The MCB, WCBs and assay stocks were prepared within respectively 3, 6 and 9 passages of the ATCC vial.
(§2) Solid powders of reference compounds were weighed on a calibrated balance and dissolved in 100% DMSO. DMSO samples were stored at room temperature. At the day of the experiment, the compound stock was diluted in 3.16 fold steps in 100% DMSO to obtain a 9-point dilution series. This was further diluted 31.6 times in 20 mM sterile Hepes buffer pH 7.4. A volume of 5 μl was transferred to the cells to generate a test concentration range from 3.16×10^−5M to 3.16×10^−9 M in duplicate. The final DMSO concentration during incubation was […] in all wells.
(§3) An assay stock was thawed and diluted in its ATCC recommended medium and dispensed in a 384-well plate, depending on the cell line used, at a concentration of 200-3200 cells per well in 45 μl medium. For each used cell line the optimal cell density is used. The margins of the plate were filled with phosphate-buffered saline. Plated cells were incubated in a humidified atmosphere of 5% CO2 at 37° C. After 24 hours, 5 μl of compound dilution was added and plates were further incubated for another 120 hours. After 120 hours, 25 μl of ATPlite 1Step™ (PerkinElmer) solution was added to each well, and subsequently shaken for 2 minutes. After 10 minutes of incubation in the dark, the luminescence was recorded on an Envision multimode reader (PerkinElmer).
(§4) IC50s were calculated by non-linear regression using IDBS XLfit 5. The percentage growth after 120 h (%-growth) was calculated as follows: 100%×(luminescencet=120h/luminescenceuntreated,t=120h). This was fitted to the ^10log compound concentration (conc) by a 4-parameter logistics curve: %−growth=bottom+(top−bottom)/(1+10^(log IC50-conc)*hill)), where hill is the Hill-coefficient, and bottom and top the asymptotic minimum and maximum cell growth that the compound allows in that assay.

COLO 205 = assay: as above; type: cell-based; conditions: COLO 205 cell line; 120 hours incubation
Method: as §1, §2, §3, §4

AU-565 = assay: as above; type: cell-based; conditions: AU-565 cell line; 120 hours incubation
Method: as §1, §2, §3, §4

RPMI-7951 = assay: as above; type: cell-based; conditions: RPMI-7951 cell line; 120 hours incubation
Method: as §1, §2, §3, §4

SK-N-AS = assay: as above; type: cell-based; conditions: SK-N-AS cell line; 120 hours incubation
Method: as §1, §2, §3, §4

NCI-H82 = assay: as above; type: cell-based; conditions: NCI-H82 cell line; 120 hours incubation
Method: as §1, §2, §3, §4

DoTc2 4510 = assay: as above; type: cell-based; conditions: DoTc2 4510 cell line; 120 hours incubation
Method: as §1, §2, §3, §4

SJCRH30 = assay: as above; type: cell-based; conditions: SJCRH30 cell line; 120 hours incubation
Method: as §1, §2, §3, §4

LoVo = assay: as above; type: cell-based; conditions: LoVo cell line; 120 hours incubation
Method: as §1, §2, §3, §4

SR = assay: as above; type: cell-based; conditions: SR cell line; 120 hours incubation
Method: as §1, §2, §3, §4

C-33 A = assay: as above; type: cell-based; conditions: C-33 A cell line; 120 hours incubation
Method: as §1, §2, §3, §4

U-87 MG = assay: as above; type: cell-based; conditions: U-87 MG cell line; 120 hours incubation
Method: as §1, §2, §3, §4

A-549 = assay: as above; type: cell-based; conditions: A-549 cell line; 120 hours incubation
Method: as §1, §2, §3, §4

J82 = assay: as above; type: cell-based; conditions: J82 cell line; 120 hours incubation
Method: as §1, §2, §3, §4

MG-63 = assay: as above; type: cell-based; conditions: MG-63 cell line; 120 hours incubation
Method: as §1, §2, §3, §4

Daoy = assay: as above; type: cell-based; conditions: Daoy cell line; 120 hours incubation
Method: as §1, §2, §3, §4

U-2 OS = assay: as above; type: cell-based; conditions: U-2 OS cell line; 120 hours incubation
Method: as §1, §2, §3, §4

HCT-15 = assay: as above; type: cell-based; conditions: HCT-15 cell line; 120 hours incubation
Method: as §1, §2, §3, §4

MIA PaCa-2 = assay: as above; type: cell-based; conditions: MIA PaCa-2 cell line; 120 hours incubation
Method: as §1, §2, §3, §4

MeWo = assay: as above; type: cell-based; conditions: MeWo cell line; 120 hours incubation
Method: as §1, §2, §3, §4

A-498 = assay: as above; type: cell-based; conditions: A-498 cell line; 120 hours incubation
Method: as §1, §2, §3, §4

PA-1 = assay: as above; type: cell-based; conditions: PA-1 cell line; 120 hours incubation
Method: as §1, §2, §3, §4

Hs 578T = assay: as above; type: cell-based; conditions: Hs 578T cell line; 120 hours incubation
Method: as §1, §2, §3, §4

A375 = assay: as above; type: cell-based; conditions: A375 cell line; 120 hours incubation
Method: as §1, §2, §3, §4

OVCAR-3 = assay: as above; type: cell-based; conditions: OVCAR-3 cell line; 120 hours incubation
Method: as §1, §2, §3, §4

AN3 CA = assay: as above; type: cell-based; conditions: AN3 CA cell line; 120 hours incubation
Method: as §1, §2, §3, §4

HCT 116 = assay: as above; type: cell-based; conditions: HCT 116 cell line; 120 hours incubation
Method: as §1, §2, §3, §4

CCRF-CEM = assay: as above; type: cell-based; conditions: CCRF-CEM cell line; 120 hours incubation
Method: as §1, §2, §3, §4

RT4 = assay: as above; type: cell-based; conditions: RT4 cell line; 120 hours incubation
Method: as §1, §2, §3, §4

TT = TT cell line; 120 hours incubation
Method: as §1, §2, §3, §4

| SMILES | Fold change in IC50 (IC50 [Drug + Cobicistat]/IC50 [Drug]) (SHP-77) | Fold change in IC50 (IC50 [Drug + Cobicistat]/IC50 [Drug]) (COLO 205) | Fold change in IC50 (IC50 [Drug + Cobicistat]/IC50 [Drug]) (AU-565) | Fold change in IC50 (IC50 [Drug + Cobicistat]/IC50 [Drug]) (RPMI-7951) | Fold change in IC50 (IC50 [Drug + Cobicistat]/IC50 [Drug]) (SK-N-AS) | Fold change in IC50 (IC50 [Drug + Cobicistat]/IC50 [Drug]) (NCI-H82) | Fold change in IC50 (IC50 [Drug + Cobicistat]/IC50 [Drug]) (DoTc2 4510) | Fold change in IC50 (IC50 [Drug + Cobicistat]/IC50 [Drug]) (SJCRH30) | Fold change in IC50 (IC50 [Drug + Cobicistat]/IC50 [Drug]) (LoVo) | Fold change in IC50 (IC50 [Drug + Cobicistat]/IC50 [Drug]) (SR) | Fold change in IC50 (IC50 [Drug + Cobicistat]/IC50 [Drug]) (C-33 A) | Fold change in IC50 (IC50 [Drug + Cobicistat]/IC50 [Drug]) (U-87 MG) | Fold change in IC50 (IC50 [Drug + Cobicistat]/IC50 [Drug]) (A-549) | Fold change in IC50 (IC50 [Drug + Cobicistat]/IC50 [Drug]) (J82) | Fold change in IC50 (IC50 [Drug + Cobicistat]/IC50 [Drug]) (MG-63) | Fold change in IC50 (IC50 [Drug + Cobicistat]/IC50 [Drug]) (Daoy) | Fold change in IC50 (IC50 [Drug + Cobicistat]/IC50 [Drug]) (U-2 OS) | Fold change in IC50 (IC50 [Drug + Cobicistat]/IC50 [Drug]) (HCT-15) | Fold change in IC50 (IC50 [Drug + Cobicistat]/IC50 [Drug]) (MIA PaCa-2) | Fold change in IC50 (IC50 [Drug + Cobicistat]/IC50 [Drug]) (MeWo) | also measured |
| --- | --- | --- | --- | --- | --- | --- | --- | --- | --- | --- | --- | --- | --- | --- | --- | --- | --- | --- | --- | --- | --- |
| COc1cccc2c1C(=O)c1c(O)c3c(c(O)c1C2=O)C[C@@](O)(C(=O)CO)C[C@@H]3O[C@H]1C[C@H](N)[C@H](O)[C@H](C)O1 [doxorubicin] | 2.5 fold | 2.3 fold | 2.1 fold | 2.3 fold | 2.3 fold | 2.6 fold | 1.7 fold | 2.2 fold | 2.0 fold | 1.8 fold | 1.9 fold | 0.7 fold | 0.8 fold | 2.2 fold | 2.4 fold | 1.6 fold | 3.0 fold | 2.0 fold | 2.2 fold | 2.1 fold | Fold change in IC50 (IC50 [Drug + Cobicistat]/IC50 [Drug]) (A-498): 1.2 fold; Fold change in IC50 (IC50 [Drug + Cobicistat]/IC50 [Drug]) (PA-1): 3.0 fold; Fold change in IC50 (IC50 [Drug + Cobicistat]/IC50 [Drug]) (Hs 578T): 1.7 fold; Fold change in IC50 (IC50 [Drug + Cobicistat]/IC50 [Drug]) (A375): 2.2 fold; Fold change in IC50 (IC50 [Drug + Cobicistat]/IC50 [Drug]) (OVCAR-3): 2.5 fold; Fold change in IC50 (IC50 [Drug + Cobicistat]/IC50 [Drug]) (AN3 CA): 2.0 fold; Fold change in IC50 (IC50 [Drug + Cobicistat]/IC50 [Drug]) (HCT 116): 1.8 fold; Fold change in IC50 (IC50 [Drug + Cobicistat]/IC50 [Drug]) (CCRF-CEM): 2.7 fold; Fold change in IC50 (IC50 [Drug + Cobicistat]/IC50 [Drug]) (RT4): 2.7 fold; Fold change in IC50 (IC50 [Drug + Cobicistat]/IC50 [Drug]) (TT): 1.1 fold |
| CC(=O)O[C@H]1C(=O)[C@@]2(C)[C@H]([C@H](OC(=O)c3ccccc3)[C@]3(O)C[C@H](OC(=O)[C@H](O)[C@@H](NC(=O)c4ccccc4)c4ccccc4)C(C)=C1C3(C)C)[C@]1(OC(C)=O)CO[C@@H]1C[C@@H]2O [paclitaxel] | 2.3 fold | 3.0 fold | 2.7 fold | 2.9 fold | 2.3 fold | 2.4 fold | 3.4 fold | 1.6 fold | 1.3 fold | 1.8 fold | 1.3 fold | 2.2 fold | 1.0 fold | 2.9 fold | 2.4 fold | 3.4 fold | 3.2 fold | 2.4 fold | 3.0 fold | 2.0 fold | Fold change in IC50 (IC50 [Drug + Cobicistat]/IC50 [Drug]) (A-498): 2.8 fold; Fold change in IC50 (IC50 [Drug + Cobicistat]/IC50 [Drug]) (PA-1): 3.9 fold; Fold change in IC50 (IC50 [Drug + Cobicistat]/IC50 [Drug]) (Hs 578T): 2.6 fold; Fold change in IC50 (IC50 [Drug + Cobicistat]/IC50 [Drug]) (A375): 2.3 fold; Fold change in IC50 (IC50 [Drug + Cobicistat]/IC50 [Drug]) (OVCAR-3): 1.7 fold; Fold change in IC50 (IC50 [Drug + Cobicistat]/IC50 [Drug]) (AN3 CA): 2.9 fold; Fold change in IC50 (IC50 [Drug + Cobicistat]/IC50 [Drug]) (HCT 116): 1.0 fold; Fold change in IC50 (IC50 [Drug + Cobicistat]/IC50 [Drug]) (CCRF-CEM): 2.6 fold; Fold change in IC50 (IC50 [Drug + Cobicistat]/IC50 [Drug]) (RT4): 3.7 fold; Fold change in IC50 (IC50 [Drug + Cobicistat]/IC50 [Drug]) (TT): 3.0 fold |
| CC[C@]1(O)C[C@@H]2CN(CCc3c([nH]c4ccccc34)[C@@](C(=O)OC)(c3cc4c(cc3OC)N(C)[C@H]3[C@@](O)(C(=O)OC)[C@H](OC(C)=O)[C@]5(CC)C=CCN6CC[C@]43[C@@H]65)C2)C1 [vinblastine] | 2.0 fold | 4.9 fold | 3.0 fold | 3.2 fold | 3.7 fold | 3.5 fold | 5.0 fold | 3.8 fold | 1.9 fold | 4.0 fold | 1.9 fold | 2.6 fold | 2.3 fold | 4.2 fold | 2.8 fold | 5.7 fold | 4.4 fold | 2.3 fold | 3.7 fold | 3.2 fold | Fold change in IC50 (IC50 [Drug + Cobicistat]/IC50 [Drug]) (A-498): 3.8 fold; Fold change in IC50 (IC50 [Drug + Cobicistat]/IC50 [Drug]) (PA-1): 6.3 fold; Fold change in IC50 (IC50 [Drug + Cobicistat]/IC50 [Drug]) (Hs 578T): 3.7 fold; Fold change in IC50 (IC50 [Drug + Cobicistat]/IC50 [Drug]) (A375): 3.4 fold; Fold change in IC50 (IC50 [Drug + Cobicistat]/IC50 [Drug]) (OVCAR-3): 2.6 fold; Fold change in IC50 (IC50 [Drug + Cobicistat]/IC50 [Drug]) (AN3 CA): 3.9 fold; Fold change in IC50 (IC50 [Drug + Cobicistat]/IC50 [Drug]) (HCT 116): 2.0 fold; Fold change in IC50 (IC50 [Drug + Cobicistat]/IC50 [Drug]) (CCRF-CEM): 3.3 fold; Fold change in IC50 (IC50 [Drug + Cobicistat]/IC50 [Drug]) (RT4): 4.9 fold; Fold change in IC50 (IC50 [Drug + Cobicistat]/IC50 [Drug]) (TT): 8.7 fold |
